The values that follow are results of earlier work, collected in patent US20230157949A1, “ORAL FILM OF HIV DRUGS” (LAURUS LABS LIMITED, priority 2020, published 2023).

For the data set the following is noted: in combination with low doses of ritonavir.

Regarding `Cc1cccc(C)c1OCC(=O)N[C@@H](Cc1ccccc1)[C@@H](O)C[C@H](Cc1ccccc1)NC(=O)[C@H](C(C)C)N1CCCNC1=O` [lopinavir, Lopinavir], the “increase of AUC” value is “greater than 100 fold”.
